Measurements taken from patent US4742049A, “Semisynthetic erythromycin antibiotics” (Abbott Laboratories, priority 1986, dated 1988).
Values after ≈ are worked out from the molar mass of the structure shown. Where two headings read alike, the source gives them in different places.

What was measured:
Micrococcus luteus = assay: antimicrobial spectrum, agar dilution MIC; type: cell-based; details: 20-24 hours
[1] = tested on: gut contractions (stomach, duodenum, jejunum); details: dog, in vivo, iv, 4 mg/kg
Protocol: Compounds of this invention have been tested for gastrointestinal stimulating activity in a dog model at 4 mg/kg intravenously. Contractions in the gut were recorded with surgically implanted strain gauges. […] Ratios were calculated for the stomach, duodenum and jejunum, and a final arithmetic mean index was calculated and reported in Table 1.

Lactobacillus Casei = assay: antimicrobial spectrum, agar dilution MIC; type: cell-based; details: Lacticaseibacillus casei, ATCC7469, strain ATCC 7469; BHI agar, 20-24 hours
E. coli = assay: antimicrobial spectrum, agar dilution MIC; type: cell-based; details: Escherichia coli, BHI agar, 20-24 hours
Ent. aerogenes = assay: antimicrobial spectrum, agar dilution MIC; type: cell-based; details: Klebsiella aerogenes, BHI agar, 20-24 hours
Klebsiella pneumoniae = assay: antimicrobial spectrum, agar dilution MIC; type: cell-based; details: strain 8045, BHI agar, 20-24 hours
Strep. pyogenes = assay: antimicrobial spectrum, agar dilution MIC; type: cell-based; details: Streptococcus pyogenes, BHI agar, 20-24 hours
Protocol: (§1) Twelve petri dishes containing successive aqueous dilutions of the test compound mixed with 10 ml of sterilized Brain Heart Infusion agar (Difco 0418-01-5) are prepared. Each plate is inoculated with 1:100 (or 1:10 for slow-growing strains, primarily Micrococcus and Streptococcus) dilutions of up to 32 different microorganisms, using a Steers replicator block. The inoculated plates are incubated at 35°-37° C. for 20-24 hours. In addition, a control plate, using BHI agar containing no test compound, is prepared and incubated at the beginning and end of each test.
(§2) An additional plate containing a compound having known susceptibility patterns for the organisms being tested and belonging to the same antibiotic class as the test compound is also prepared and incubated as a further control, as well as to provide test-to-test comparability.
(§3) After incubation, each disk is read. The MIC is defined as the lowest concentration of drug yielding no growth, a slight haze, or sparsely isolated colonies on the inoculum spot as compared to the growth control.

Staph. aureus = assay: antimicrobial spectrum, agar dilution MIC; type: cell-based; details: Staphylococcus aureus, BHI agar, 20-24 hours
Protocol: as §1, §2, §3

Strep. bovis = assay: antimicrobial spectrum, agar dilution MIC; type: cell-based; details: Streptococcus equinus, strain A5169; BHI agar, 20-24 hours
Protocol: as §1, §2, §3

Providencia stuartii = assay: antimicrobial spectrum, agar dilution MIC; type: cell-based; details: strain CMX 640, BHI agar, 20-24 hours
Protocol: as §1, §2, §3

Strep. faecium = assay: antimicrobial spectrum, agar dilution MIC; type: cell-based; details: Enterococcus faecium, ATCC8043, strain ATCC 8043; BHI agar, 20-24 hours
Protocol: as §1, §2, §3

Pseudomonas aeruginosa = assay: antimicrobial spectrum, agar dilution MIC; type: cell-based; details: Pseudomonas aeruginosa, BHI agar, 20-24 hours
Protocol: as §1, §2, §3

Staph. epidermidis = assay: antimicrobial spectrum, agar dilution MIC; type: cell-based; details: Staphylococcus epidermidis, BHI agar, 20-24 hours
Protocol: as §1, §2, §3

Strep. agalactiae = assay: antimicrobial spectrum, agar dilution MIC; type: cell-based; details: Streptococcus agalactiae, strain CMX 508; BHI agar, 20-24 hours
Protocol: as §1, §2, §3

Acinetobacter SP = assay: antimicrobial spectrum, agar dilution MIC; type: cell-based; details: strain CMX 669, BHI agar, 20-24 hours
Pseudomonas cepacia = assay: antimicrobial spectrum, agar dilution MIC; type: cell-based; details: Burkholderia cepacia, strain 2961; BHI agar, 20-24 hours; read-out: MIC
Protocol: Erythromycin A was used for this purpose.
After incubation, each disk is read.

| Structure (SMILES) | MIC (Micrococcus luteus; strain 4698, BHI agar) | MIC (Micrococcus luteus; strain 9341, BHI agar) | MIC (Lactobacillus Casei) | MIC (E. coli; strain DC-2) | MIC (E. coli; strain H560) | MIC (E. coli; strain JUHL) | MIC (E. coli; strain KNK 437) | MIC (E. coli; strain SS) | MIC (Klebsiella pneumoniae) | MIC (Strep. pyogenes; strain 930) | MIC (Strep. pyogenes; strain EES61) | MIC (Staph. aureus; ATCC6538P, strain ATCC 6538P) | MIC (Staph. aureus; strain 45) | MIC (Staph. aureus; strain 45 RAR 2) | MIC (Staph. aureus; strain A5177) | MIC (Staph. aureus; strain CMX 686B) | MIC (Strep. bovis) | MIC (Providencia stuartii) | MIC (Strep. faecium) | MIC (Pseudomonas aeruginosa; strain 5007) | also measured |
| --- | --- | --- | --- | --- | --- | --- | --- | --- | --- | --- | --- | --- | --- | --- | --- | --- | --- | --- | --- | --- | --- |
| CC[C@H]1OC(=O)[C@H](C)[C@@H](O[C@H]2C[C@@](C)(OC)[C@@H](O)[C@H](C)O2)[C@H](C)[C@@H](O[C@@H]2O[C@H](C)C[C@H](N(C)C)[C@H]2O)[C@](C)(OC)C[C@@H](C)C(=O)[C@H](C)[C@H]2N(C)C(=O)O[C@]12C [Example 4, 11-deoxy-6-O-methyl erythromycin A 11,12-(N-methyl)cyclic carbamate] | 0.05 µg/mL (≈ 0.0635 µM) | 0.01 µg/mL (≈ 0.0127 µM) | 0.01 µg/mL (≈ 0.0127 µM) | 25 µg/mL (≈ 31.8 µM) | 12.5 µg/mL (≈ 15.9 µM) | 25 µg/mL (≈ 31.8 µM) | 50 µg/mL (≈ 63.5 µM) | 0.1 µg/mL (≈ 0.127 µM) | 50 µg/mL (≈ 63.5 µM) | > 100 µg/mL | 0.01 µg/mL (≈ 0.0127 µM) | 0.1 µg/mL (≈ 0.127 µM) | 0.1 µg/mL (≈ 0.127 µM) | 0.2 µg/mL (≈ 0.254 µM) | 0.39 µg/mL (≈ 0.496 µM) | 0.1 µg/mL (≈ 0.127 µM) | 0.02 µg/mL (≈ 0.0254 µM) | > 100 µg/mL | 0.05 µg/mL (≈ 0.0635 µM) | 100 µg/mL (≈ 127 µM) | Gastrointestinal Motility Index [1]: 1.27; MIC (Ent. aerogenes; ATCC10348, strain ATCC 10348): 50 µg/mL (≈ 63.5 µM); MIC (Pseudomonas aeruginosa; strain BMH10): 50 µg/mL (≈ 63.5 µM); MIC (Pseudomonas aeruginosa; strain K799/61, read-out: MIC): 0.78 µg/mL (≈ 0.991 µM); MIC (Pseudomonas aeruginosa; strain K799/WT): 100 µg/mL (≈ 127 µM); MIC (Staph. epidermidis; strain 3519): 0.2 µg/mL (≈ 0.254 µM); MIC (Staph. epidermidis; strain 3519 RARI): 0.2 µg/mL (≈ 0.254 µM); MIC (Strep. agalactiae): 0.02 µg/mL (≈ 0.0254 µM); MIC (Acinetobacter SP): 12.5 µg/mL (≈ 15.9 µM); MIC (Pseudomonas cepacia): 100 µg/mL (≈ 127 µM) |
| CC[C@H]1OC(=O)[C@H](C)[C@@H](O[C@H]2C[C@@](C)(OC)[C@@H](O)[C@H](C)O2)[C@H](C)[C@@H](O[C@@H]2O[C@H](C)C[C@H](N(C)C)[C@H]2O)[C@](C)(OC)C[C@@H](C)C(=O)[C@H](C)[C@H]2N(C3CC3)C(=O)O[C@]12C [Example 5, 11-deoxy-6-O-methyl erythromycin A 11,12-(N-cyclopropyl)cyclic carbamate] | 0.2 µg/mL (≈ 0.246 µM) | 0.05 µg/mL (≈ 0.0615 µM) | 0.05 µg/mL (≈ 0.0615 µM) | 100 µg/mL (≈ 123 µM) | 25 µg/mL (≈ 30.7 µM) | 50 µg/mL (≈ 61.5 µM) | 100 µg/mL (≈ 123 µM) | 0.2 µg/mL (≈ 0.246 µM) | 100 µg/mL (≈ 123 µM) | > 100 µg/mL | 0.02 µg/mL (≈ 0.0246 µM) | 0.39 µg/mL (≈ 0.48 µM) | 0.2 µg/mL (≈ 0.246 µM) | 0.39 µg/mL (≈ 0.48 µM) | 1.56 µg/mL (≈ 1.92 µM) | 0.39 µg/mL (≈ 0.48 µM) | 0.02 µg/mL (≈ 0.0246 µM) | > 100 µg/mL | 0.1 µg/mL (≈ 0.123 µM) | > 100 µg/mL | MIC (Ent. aerogenes; ATCC13048, strain ATCC 13048, read-out: MIC): 100 µg/mL (≈ 123 µM); MIC (Pseudomonas aeruginosa; strain BMH10): 100 µg/mL (≈ 123 µM); MIC (Pseudomonas aeruginosa; strain K799/61): 6.2 µg/mL (≈ 7.63 µM); MIC (Pseudomonas aeruginosa; strain K799/WT): > 100 µg/mL; MIC (Staph. epidermidis; strain 3519): 0.39 µg/mL (≈ 0.48 µM); MIC (Staph. epidermidis; strain 3519 RARI): 0.39 µg/mL (≈ 0.48 µM); MIC (Strep. agalactiae): 0.02 µg/mL (≈ 0.0246 µM); MIC (Acinetobacter SP): 25 µg/mL (≈ 30.7 µM); MIC (Pseudomonas cepacia): > 100 µg/mL |
